Experimental data taken from patent publication EP0195316A1, “Quinolonecarboxylic acid derivatives” (KYORIN PHARMACEUTICAL CO., LTD., priority 1985, dated 1986).
Converted amounts (≈) assume the structure as drawn. Read-outs that look alike come from different tables or passages of the source.

Columns and labels:
[1] = system: K. pneumoniae 1-220S; experiment: MIC, in vitro antibacterial activity (standard strains); assay type: cell-based; details: Klebsiella pneumoniae, 1220S
[2] = system: Shigella sonnei IID 969; experiment: as above; assay type: cell-based; details: IID969; Shigella sonnei IID 969, 10^6 cells/ml, Gram -
Description: (§1) Minimal inhibitory concentrations (MICs) were determined in accordance with the method recommended by Japan Society of Chemotherapy.

[3] = system: Escherichia coli NIHJ JC-2; experiment: as above; assay type: cell-based; details: NIHJJC2
[4] = system: Proteus vulgaris IFO 3167; experiment: as above; assay type: cell-based; details: Proteus vulgaris, IFO3167
[5] = system: Pst. microns UPI 5464-1; experiment: as above; assay type: cell-based; details: Pst. microns UPI 5464-1, 10^6 cells/ml, Gram +
[6] = system: P. aeruginosa IID 1210; experiment: In vivo antibacterial activity against systemic infections in mice; details: Pseudomonas aeruginosa
Description: (§2) The infections were produced by intraperitoneal injection of suspension of the bacterial cells. The compounds were administered orally at an hour after the injection. Five male ICR mice were used for each dosage. […] The efficacy of the present compound are shown in Table 4 in comparison with those of the reference compounds.

[7] = system: E. coli ML 4707; experiment: as above; details: Escherichia coli
Description: as §2

[8] = system: S. aureus Smith; experiment: as above; details: Staphylococcus aureus
Description: as §2

[9] = system: S. pneumoniae S-4288; experiment: as above; details: Streptococcus pneumoniae
Description: as §2

[10] = system: Bacteroides fragilis 2; experiment: Experimental local infection with anaerobic bacteria in granuloma pouches in rats; assay type: in vivo; details: pouch exudate, Mean ± S.D. (n=3)
Description: Under ether anesthesia, male Wistar rats (7 weeks old) were injected subcutaneously on the back with 20 ml of germ-free air (sterilized by membrane filtration, 0.45 µm pore size) by means of a syringe. Continuously, an inflammatory reaction was induced by injecting one ml of sterile croton oil solution (1 % in olive oil) into the formed air pouch. After 2 days, the air was removed. On the eighth day, 0.5 ml of Bacteroides fragilis 2 culture (10^6 CFU/ml) were injected into bore granuloma pouches. Each compound was administered orally or subcutaneously at 2 hours after infection. […] During experiment, intake of food and water was free. It was known that the activity of the existing quinolonecarboxylic acid compounds against obligate anaerobic bacteria was very weak. […] This property is also one of excellent characters of the present comound.

[11] = system: nalidixic acid-resistant Salmonella typhimurium TA98 strain (nal^r); experiment: Mutagenicity, reverse mutation assay; details: 0.5 µg/plate, S9-mix +, positive control
Description: As for antibacterial agents, assessment of mutagenicity using bacteria is somewhat difficult because of their activity on the test bacteria.

[12] = system: N. meningitidis; experiment: MIC, in vitro antibacterial activity (clinical isolates); assay type: cell-based; details: Neisseria meningitidis, No. of strains 3
[13] = system: P. vulgaris; experiment: as above; assay type: cell-based; details: Proteus vulgaris, No. of strains 6
[14] = system: P. pneumoniae; experiment: as above; assay type: cell-based; details: No. of strains 25
Description: as §1

[15] = system: S. aureus; experiment: as above; assay type: cell-based; details: Staphylococcus aureus, No. of strains 21
Description: as §1

[16] = system: E. coli; experiment: as above; assay type: cell-based; details: Escherichia coli, No. of strains 25
Description: as §1

[17] = system: Acinetobacter sp.; experiment: as above; assay type: cell-based
[18] = system: E. cloacae; experiment: as above; assay type: cell-based; details: Enterobacter cloacae
[19] = system: S. epidermidis; experiment: as above; assay type: cell-based; details: Staphylococcus epidermidis, No. of strains 10
[20] = system: H. influenzae; experiment: as above; assay type: cell-based; details: Haemophilus influenzae, No. of strains 26
[21] = system: S. pyogenes; experiment: as above; assay type: cell-based; details: Streptococcus pyogenes
[22] = system: S. pneumoniae; experiment: as above; assay type: cell-based; details: Streptococcus pneumoniae
[23] = system: S. marcescens; experiment: as above; assay type: cell-based; details: Serratia marcescens, No. of strains 20
[24] = system: P. maltophilia; experiment: as above; assay type: cell-based; details: Stenotrophomonas maltophilia, No. of strains 9
[25] = system: Campylobacter jejuni; experiment: as above; assay type: cell-based; details: No. of strains 20
[26] = system: Alcaligenes sp.; experiment: as above; assay type: cell-based; details: No. of strains 9
[27] = system: E. faecalis; experiment: as above; assay type: cell-based; details: Enterococcus faecalis, No. of strains 5
[28] = system: M. morganii; experiment: as above; assay type: cell-based; details: Morganella morganii, No. of strains 8
[29] = system: P. aeruginosa; experiment: as above; assay type: cell-based; details: Pseudomonas aeruginosa
[30] = system: Bacteroides sp.; experiment: as above; assay type: cell-based; details: No. of strains 17
[31] = system: N. gonorrhoeae; experiment: as above; assay type: cell-based; details: Neisseria gonorrhoeae, No. of strains 16
[32] = system: B. catarrhalis; experiment: as above; assay type: cell-based; details: Moraxella catarrhalis
[33] = system: MR-S. aureus; experiment: as above; assay type: cell-based; details: Staphylococcus aureus, No. of strains 46
[34] = system: C. freundii; experiment: as above; assay type: cell-based; details: Citrobacter freundii, No. of strains 9
[35] = system: P. mirabilis; experiment: as above; assay type: cell-based; details: Proteus mirabilis, No. of strains 10
[36] = system: Klebsiella pneumoniae KY(GN)6445; experiment: MIC, in vitro antibacterial activity (standard strains); assay type: cell-based; details: Klebsiella pneumoniae
[37] = system: Alcaligenes faecalis 0104002; experiment: as above; assay type: cell-based; details: Alcaligenes faecalis, 0104002
[38] = system: Streptococcus pyogenes (S-8); experiment: as above; assay type: cell-based; details: Streptococcus pyogenes
[39] = system: C. perfringens KYA 13123; experiment: microbe, parasite or virus in culture; assay type: cell-based; details: Clostridium perfringens, KYA13123
[40] = system: F. varium KYA 8501; experiment: MIC, in vitro antibacterial activity (standard strains); assay type: cell-based; details: Fusobacterium varium, KYA8501
[41] = system: S. pneumoniae IID 552; experiment: as above; assay type: cell-based; details: Streptococcus pneumoniae, IID552
[42] = system: B. thetaiotaomicron (0661); experiment: as above; assay type: cell-based; details: Bacteroides thetaiotaomicron
[43] = IID1210, P. aeruginosa IID 1210 systemic infection (i.p.), male ICR mice, oral administration an hour after infection, read-out: ED50
[44] = ML4707, E. coli ML 4707 systemic infection (i.p.), male ICR mice, oral administration an hour after infection, read-out: ED50
[45] = S4288, S. pneumoniae S-4288 systemic infection (i.p.), male ICR mice, oral administration an hour after infection, read-out: ED50

O=C(O)c1cn(C2CC2)c2cc(N3CCNCC3)c(F)cc2c1=O [CFLX, Ciprofloxacin]
MIC [1]: 0.05 µg/mL (≈ 0.151 µM) | MIC [2]: ≤ 0.006 µg/mL | MIC ([3]; Escherichia coli NIHJ JC-2, 10^6 cells/ml, Gram -, read-out: MIC): ≤ 0.006 µg/mL | MIC [4]: ≤ 0.006 µg/mL | MIC [5]: 0.2 µg/mL | ED50 ([6]; IID1210, po): 4.5 mg/kg | ED50 ([7]; ML4707, po): 1.5 mg/kg | ED50 ([8]; po): 31 mg/kg | ED50 ([9]; S4288, po): > 100 mg/kg

CO[C@@]1(NC(=O)Cc2cccs2)C(=O)N2C(C(=O)O)=C(COC(N)=O)CS[C@@H]21 [CFX, cefoxitin]
Viable cells count (log) / ml ([10]; 50 mg/kg, s.c., 6 hr): 3.9 ± 0.25 (log) / ml | Viable cells count (log) / ml ([10]; 50 mg/kg, s.c., 24 hr): 6.3 ± 0.31 (log) / ml

CCC[C@@H]1C[C@@H](C(=O)N[C@@H]([C@H]2O[C@H](SC)[C@H](O)[C@@H](O)[C@H]2O)[C@H](C)Cl)N(C)C1 [CLDM, clindamycin]
Viable cells count (log) / ml ([10]; 25 mg/kg, s.c., 6 hr): 4.6 ± 0.058 (log) / ml | Viable cells count (log) / ml ([10]; 25 mg/kg, s.c., 24 hr): 6.4 ± 0.38 (log) / ml

Nc1ccc2cc3ccccc3cc2c1 [Example 2AA, 2-Aminoanthracene]
His^+ revertants per plate [11]: 277

Cc1ncc([N+](=O)[O-])n1CCO [MND, metronidazole]
Viable cells count (log) / ml ([10]; 50 mg/kg, p.o., 6 hr): 5.2 ± 0.10 (log) / ml | Viable cells count (log) / ml ([10]; 50 mg/kg, p.o., 24 hr): 5.7 ± 0.60 (log) / ml

CCn1cc(C(=O)O)c(=O)c2cc(F)c(N3CCNCC3)cc21 [NFLX, Norfloxacin]
MIC [12]: 0.05 µg/mL (≈ 0.157 µM) | MIC [13]: 0.05 µg/mL (≈ 0.157 µM) | MIC [14]: 0.78 µg/mL (≈ 2.44 µM) | MIC [15]: 1.56 µg/mL (≈ 4.89 µM) | MIC [16]: 0.1 µg/mL (≈ 0.313 µM) | MIC ([17]; Acinetobacter): 12.5 µg/mL (≈ 39.1 µM) | MIC [18]: 0.1 µg/mL (≈ 0.313 µM) | MIC [19]: 0.78 µg/mL (≈ 2.44 µM) | MIC [20]: 0.2 µg/mL (≈ 0.626 µM) | MIC [21]: 1.56 µg/mL (≈ 4.89 µM) | MIC [22]: 12.5 µg/mL (≈ 39.1 µM) | MIC [23]: 0.1 µg/mL (≈ 0.313 µM) | MIC [24]: 25 µg/mL (≈ 78.3 µM) | MIC [25]: 0.78 µg/mL (≈ 2.44 µM) | MIC [26]: 100 µg/mL (≈ 313 µM) | MIC [27]: 6.25 µg/mL (≈ 19.6 µM) | MIC [28]: 0.05 µg/mL (≈ 0.157 µM) | MIC [29]: 1.56 µg/mL (≈ 4.89 µM) | MIC [30]: 50 µg/mL (≈ 157 µM) | MIC [31]: 0.1 µg/mL (≈ 0.313 µM) | MIC [32]: 1.56 µg/mL (≈ 4.89 µM) | MIC [33]: 25 µg/mL (≈ 78.3 µM) | ED50 [6, 43]: 18.9 mg/kg | ED50 [7, 44]: 8.9 mg/kg | ED50 [9, 45]: > 100 mg/kg | MIC [34]: 0.39 µg/mL (≈ 1.22 µM) | MIC [35]: 0.1 µg/mL (≈ 0.313 µM)

CC1COc2c(N3CCN(C)CC3)c(F)cc3c(=O)c(C(=O)O)cn1c23 (stereo not drawn) [OFLX, Ofloxacin]
MIC [12]: 0.025 µg/mL (≈ 0.0692 µM) | MIC [13]: 0.1 µg/mL (≈ 0.277 µM) | MIC [14]: 0.78 µg/mL (≈ 2.16 µM) | MIC [15]: 0.39 µg/mL (≈ 1.08 µM) | MIC [16]: 0.1 µg/mL (≈ 0.277 µM) | MIC ([17]; clinical isolates Acinetobacter sp., No. of strains 13, read-out: MIC): 3.13 µg/mL (≈ 8.66 µM) | MIC [18]: 0.1 µg/mL (≈ 0.277 µM) | MIC [19]: 0.39 µg/mL (≈ 1.08 µM) | MIC [20]: 0.1 µg/mL (≈ 0.277 µM) | MIC ([21]; clinical isolates S. pyogenes, No. of strains 6, read-out: MIC): 1.56 µg/mL (≈ 4.32 µM) | MIC ([22]; clinical isolates S. pneumoniae, No. of strains 6, read-out: MIC): 3.13 µg/mL (≈ 8.66 µM) | MIC [23]: 0.2 µg/mL (≈ 0.553 µM) | MIC [24]: 6.25 µg/mL (≈ 17.3 µM) | MIC [25]: 0.39 µg/mL (≈ 1.08 µM) | MIC [26]: 6.25 µg/mL (≈ 17.3 µM) | MIC [27]: 3.13 µg/mL (≈ 8.66 µM) | MIC [28]: 0.1 µg/mL (≈ 0.277 µM) | MIC ([29]; clinical isolates P. aeruginosa, No. of strains 27, read-out: MIC): 3.13 µg/mL (≈ 8.66 µM) | MIC [30]: 3.13 µg/mL (≈ 8.66 µM) | MIC [31]: 0.05 µg/mL (≈ 0.138 µM) | MIC ([32]; clinical isolates B. catarrhalis, No. of strains 21, read-out: MIC): 0.2 µg/mL (≈ 0.553 µM) | MIC [33]: 1.56 µg/mL (≈ 4.32 µM) | ED50 [6, 43]: 12.1 mg/kg | ED50 [7, 44]: 2.1 mg/kg | ED50 ([8]; S. aureus Smith systemic infection (i.p.), male ICR mice, oral administration an hour after infection, read-out: ED50): 17 mg/kg | ED50 [9, 45]: > 100 mg/kg | MIC [34]: 0.39 µg/mL (≈ 1.08 µM) | MIC [35]: 0.2 µg/mL (≈ 0.553 µM)

O=C(O)c1cn(C2CC2)c2c(F)c(N3CCNCC3)c(F)cc2c1=O [Ref.1, 1-Cyclopropyl-6,8-difluoro-1,4-dihydro-4-oxo-7-(1-piperazinyl)-3-quinoline-carboxylic acid]
MIC [1]: 0.05 µg/mL (≈ 0.143 µM) | MIC [36]: 0.0125 µg/mL (≈ 0.0358 µM) | MIC [37]: 0.025 µg/mL (≈ 0.0716 µM) | MIC [2]: ≤ 0.006 µg/mL | MIC [38]: 0.39 µg/mL (≈ 1.12 µM) | MIC ([3]; Escherichia coli): ≤ 0.006 µg/mL | MIC [39]: 0.39 µg/mL (≈ 1.12 µM) | MIC [40]: 3.13 µg/mL (≈ 8.96 µM) | MIC [41]: 0.78 µg/mL (≈ 2.23 µM) | MIC [42]: 3.13 µg/mL (≈ 8.96 µM)
